Data taken from patent US20100267561A1, “HERBICIDAL PYRIDAZINONE DERIVATIVES” (priority 2007, published 2010).

Tests used:
Type in all cases: in vivo
[1] = tested on: velvetleaf (Abutilon theophrasti); assay: Test A pre-/postemergence plant response
How it was run: (§1)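 Both pre- and postemergence treatment given concurrently; postemergence seedlings measured 2–10 cm at the one- to two-leaf stage. Visual injury, 0–100 scale versus untreated, at ~10 days.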

[2] = tested on: wheat (Triticum aestivum); assay: Test A pre-/postemergence plant response
How it was run: as §1

[3] = tested on: giant foxtail (Setaria faberi); assay: Test A pre-/postemergence plant response
How it was run: as §1

[4] = tested on: pigweed (Amaranthus retroflexus); assay: Test A pre-/postemergence plant response
How it was run: as §1

[5] = tested on: barnyardgrass (Echinochloa crus-galli); assay: Test A pre-/postemergence plant response
How it was run: as §1

[6] = tested on: morningglory (Ipomoea coccinea); assay: Test A pre-/postemergence plant response
How it was run: as §1

[7] = tested on: large crabgrass (Digitaria sanguinalis); assay: Test A pre-/postemergence plant response
How it was run: as §1

corn (Zea mays) = assay: Test A pre-/postemergence plant response
How it was run: as §1

[8] = tested on: barnyardgrass (Echinochloa crus-galli); assay: Test B flooded paddy test plant response
How it was run: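 2-leaf plants; pots flooded 3 cm above soil; compound added to paddy water; depth maintained. Greenhouse 13–15 d. Visual rating vs controls, 0 (no effect) to 100 (complete control); dash = no result.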

[9] = tested on: eastern black (E.B.) nightshade (Solanum ptycanthum); assay: Test B pre-/postemergence plant response; conditions: Preemergence; for Nightshade, E. B. plant response rating: scale 0 to 100
How it was run: (§2)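 Preemergence and postemergence (plants 2-18 cm, 1- to 4-leaf stage) applications used test chemicals in a non-phytotoxic solvent with surfactant. Plants were held in a greenhouse 13 to 15 days, then rated visually against controls on a 0-100 scale (0 no effect, 100 complete control).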

[10] = tested on: green foxtail (Setaria viridis); assay: Test B pre-/postemergence plant response
How it was run: as §2

[11] = Postemergence, 31 g ai/ha, 0 to 100 scale (0 no effect, 100 complete control)
[12] = Postemergence, 125 g ai/ha, 0 to 100 scale, 0 no effect, 100 complete control
[13] = Preemergence, 31 g ai/ha, 0 to 100 scale, 0 is no effect, 100 is complete control
[14] = Preemergence, 125 g ai/ha, 0 to 100 scale (0 no effect, 100 complete control)

CCc1cc(-c2ccc(C(F)(F)F)cc2)nn1-c1c(O)cnn(CC)c1=O [Compound 67]
Plant response rating, Velvetleaf [1, 11]: 0 | Plant response rating, Velvetleaf [1, 12]: 0 | Plant response rating, Velvetleaf [1, 13]: 0 | Plant response rating, Velvetleaf [1, 14]: 0 | Plant response rating, Wheat [2, 11]: 90 | Plant response rating, Wheat [2, 12]: 100 | Plant response rating, Wheat [2, 13]: 20 | Plant response rating, Wheat [2, 14]: 90 | Plant response rating, Foxtail, Giant [3, 11]: 100 | Plant response rating, Foxtail, Giant [3, 12]: 100 | Plant response rating, Foxtail, Giant [3, 13]: 40 | Plant response rating, Foxtail, Giant [3, 14]: 100 | Plant response rating, Pigweed [4, 11]: 0 | Plant response rating, Pigweed [4, 12]: 0 | Plant response rating, Pigweed [4, 13]: 0 | Plant response rating, Pigweed [4, 14]: 0 | Plant response rating, Barnyardgrass [5, 11]: 100 | Plant response rating, Barnyardgrass [5, 12]: 100 | Plant response rating, Barnyardgrass [5, 13]: 0 | Plant response rating, Barnyardgrass [5, 14]: 100 | Plant response rating, Morningglory [6, 11]: 0 | Plant response rating, Morningglory [6, 12]: 0 | Plant response rating, Morningglory [6, 13]: 0 | Plant response rating, Morningglory [6, 14]: 0 | Plant response rating, Crabgrass, Large [7, 11]: 80 | Plant response rating, Crabgrass, Large [7, 12]: 100 | Plant response rating, Crabgrass, Large [7, 13]: 20 | Plant response rating, Crabgrass, Large [7, 14]: 90 | Plant response rating, Corn (corn (Zea mays); [11]): 90 | Plant response rating, Corn (corn (Zea mays); [12]): 100 | Plant response rating, Corn (corn (Zea mays); [13]): 20 | Plant response rating, Corn (corn (Zea mays); [14]): 80 | Plant response rating, Barnyardgrass ([8]; Flood (flooded paddy test), 62 g ai/ha, scale 0 to 100, 0 no effect, 100 complete control): 25 | Plant response rating, Barnyardgrass ([8]; Flood (flooded paddy test), 125 g ai/ha, scale 0 to 100, 0 no effect, 100 complete control): 35 | Plant response rating, Barnyardgrass ([8]; Flood (flooded paddy test), 250 g ai/ha, scale 0 to 100, 0 no effect, 100 complete control): 50 | Plant response rating, Barnyardgrass ([8]; Flood, 31 g ai/ha, scale 0 to 100): 0 | Plant response rating, Nightshade, E. B. ([9]; 31 g ai/ha, scale 0 to 100 (0 no effect, 100 complete control)): 0 | Plant response rating, Nightshade, E. B. ([9]; 62 g ai/ha, 0 to 100 scale, 0 no effect, 100 complete control): 0 | Nightshade, E. B. plant response rating ([9]; 8 g ai/ha): 0 | Nightshade, E. B. plant response rating ([9]; 16 g ai/ha): 0 | Foxtail, Green plant response rating ([10]; 8 g ai/ha, postemergence, 0-100 scale): 65 | Plant response rating, Foxtail, Green ([10]; Postemergence, 16 g ai/ha, scale 0 to 100): 70 | Plant response rating, Foxtail, Green ([10]; Postemergence, 31 g ai/ha, scale 0 to 100): 98 | Plant response rating, Foxtail, Green ([10]; Postemergence, 62 g ai/ha, scale 0 to 100, 0 no effect, 100 complete control): 100 | Plant response rating, Foxtail, Green ([10]; Preemergence, 31 g ai/ha, scale 0 to 100 (0 no effect, 100 complete control)): 100 | Plant response rating, Foxtail, Green ([10]; Preemergence, 62 g ai/ha, 0 to 100 scale, 0 no effect, 100 complete control): 100 | Foxtail, Green plant response rating ([10]; Preemergence, 8 g ai/ha, scale 0 to 100): 100 | Foxtail, Green plant response rating ([10]; Preemergence, 16 g ai/ha, scale 0 to 100): 100
